US9180118B2, “Thiadiazolidinone derivatives” (University of Rochester, priority 2006, dated 2015)
Like-named read-outs stand apart in the source and are kept apart here.

Assays:
normal progenitor cells = test: Methylcellulose colony assay, normal specimens; format: cell-based, human; conditions: 20 μM TDZD-8, 18 hours before plating, n=12
Protocol: Cells were then plated at 50,000 cells/ml in Methocult™ GF H4534 (1% methylcellulose in IMDM, 30% FBS, 1% BSA, 10^−4M 2-mercaptoethanol, 2 mM L-glutamine, 50 ng/ml rh stem cell factor, 10 ng/ml rh GM-CSF, 10 ng/ml rh IL-3-Stem Cell Technologies, Vancouver, B.C.) supplemented with 3 units/ml of erythropoietin and 50 ng/ml G-CSF (R&D Systems, Minneapolis, Minn.). Colonies were scored after 10-14 days of culture.

[1] = system: Breast cancer, 7 cell lines; test: NCI-60 screen; format: cell-based; conditions: Homo sapiens
Source text: (§1) In contrast the cell viability for normal specimens was 79.5% (n=13).

CCRF-CEM = test: NCI-60 screen; format: cell-based; conditions: Homo sapiens
Source text: as §1

CNS cancer, 6 cell lines = test: NCI-60 screen; format: cell-based; conditions: Homo sapiens
Source text: as §1

[2] = system: Colon cancer, 7 cell lines; test: NCI-60 screen; format: cell-based; conditions: Homo sapiens
Source text: as §1

HL-60 = test: NCI-60 screen; format: cell-based; conditions: Homo sapiens
Source text: as §1

K-562 = test: NCI-60 screen; format: cell-based; conditions: Homo sapiens
Source text: as §1

Melanoma, 8 cell lines = test: NCI-60 screen; format: cell-based; conditions: Homo sapiens
Source text: as §1

[3] = system: Non-small cell lung cancer, 9 cell lines; test: NCI-60 screen; format: cell-based; conditions: Homo sapiens
Source text: as §1

[4] = system: Ovarian cancer, 5 cell lines; test: NCI-60 screen; format: cell-based; conditions: Homo sapiens
Source text: as §1

[5] = system: Prostate cancer, 2 cell lines; test: NCI-60 screen; format: cell-based; conditions: Homo sapiens
Source text: as §1

RPMI-8226 = test: NCI-60 screen; format: cell-based; conditions: Homo sapiens
Source text: as §1

[6] = system: Renal cancer, 7 cell lines; test: NCI-60 screen; format: cell-based; conditions: Homo sapiens
Source text: as §1

SR = test: NCI-60 screen; format: cell-based; conditions: Homo sapiens
Source text: as §1

GSK3B (GSK3 beta) = GSK3B (GSK3 beta) (Homo sapiens, UniProt P49841); test: Kinase assay (single point and titration); format: biochemical; conditions: TDZD-8 20 μM
CDK1/cyclin B = CDK1/cyclin B (Homo sapiens, UniProt P06493); test: Kinase assay; format: biochemical
Protocol: (§2) Kinase Assays: Single point and titration assays are performed using protocols (or essentially using protocols) know in the art for kinase activity profiling against a battery of kinase targets, including, for example, those specifically delineated herein. Such assays include, for example, those available from commercial sources, contract research laboratories, and the like.

CSNK1G2 (CK1 gamma 2) = CSNK1G2 (CK1 gamma 2) (Homo sapiens, UniProt P78368); test: Kinase assay; format: biochemical
Protocol: as §2

DYRK3 = DYRK3 (Homo sapiens, UniProt O43781); test: Kinase assay; format: biochemical
Protocol: as §2

EGFR (ErbB1) = EGFR (ErbB1) (Homo sapiens, UniProt P00533); test: Kinase assay; format: biochemical
Protocol: as §2

FGFR1 = FGFR1 (Homo sapiens, UniProt P11362); test: Kinase assay; format: biochemical
Protocol: as §2

IGF1R = IGF1R (Homo sapiens, UniProt P08069); test: Kinase assay; format: biochemical
Protocol: as §2

IRAK4 = IRAK4 (Homo sapiens, UniProt Q9NWZ3); test: Kinase assay; format: biochemical
Protocol: as §2

Jak2 = Jak2 (Homo sapiens, UniProt O60674); test: Kinase assay; format: biochemical; conditions: TDZD-8 20 μM
Protocol: as §2

MAPK14 (p38 alpha) = MAPK14 (p38 alpha) (Homo sapiens, UniProt Q16539); test: Kinase assay; format: biochemical
Protocol: as §2

MAPK3 (ERK1) = MAPK3 (ERK1) (Homo sapiens, UniProt P27361); test: Kinase assay; format: biochemical
Protocol: as §2

MET (cMet) = MET (cMet) (Homo sapiens, UniProt P08581); test: Kinase assay; format: biochemical
Protocol: as §2

PHKG2 = PHKG2 (Homo sapiens, UniProt P15735); test: Kinase assay; format: biochemical
Protocol: as §2

PRKCE (PKC epsilon) = PRKCE (PKC epsilon) (Homo sapiens, UniProt Q02156); test: Kinase assay; format: biochemical
Protocol: as §2

PRKCG (PKC gamma) = PRKCG (PKC gamma) (Homo sapiens, UniProt P05129); test: Kinase assay; format: biochemical
Protocol: as §2

PRKCH (PKC eta) = PRKCH (PKC eta) (Homo sapiens, UniProt P24723); test: Kinase assay; format: biochemical
Protocol: as §2

PRKCQ (PKC theta) = PRKCQ (PKC theta) (Homo sapiens, UniProt Q04759); test: Kinase assay; format: biochemical
Protocol: as §2

PRKCZ (PKC zeta) = PRKCZ (PKC zeta) (Homo sapiens, UniProt Q05513); test: Kinase assay; format: biochemical
Protocol: as §2

PRKD1 (PKC mu) = PRKD1 (PKC mu) (Homo sapiens, UniProt Q15139); test: Kinase assay; format: biochemical
Protocol: as §2

RPS6KA3 (RSK2) = RPS6KA3 (RSK2) (Homo sapiens, UniProt P51812); test: Kinase assay; format: biochemical
Protocol: as §2

SYK = SYK (Homo sapiens, UniProt P43405); test: Kinase assay; format: biochemical
Protocol: as §2

TEK (Tie2) = TEK (Tie2) (Homo sapiens, UniProt Q02763); test: Kinase assay; format: biochemical
Protocol: as §2

[7] = read-out: Log10 GI50 (converted)

TEK (Tie2), sequence (Q02763 23-1124, species assumed): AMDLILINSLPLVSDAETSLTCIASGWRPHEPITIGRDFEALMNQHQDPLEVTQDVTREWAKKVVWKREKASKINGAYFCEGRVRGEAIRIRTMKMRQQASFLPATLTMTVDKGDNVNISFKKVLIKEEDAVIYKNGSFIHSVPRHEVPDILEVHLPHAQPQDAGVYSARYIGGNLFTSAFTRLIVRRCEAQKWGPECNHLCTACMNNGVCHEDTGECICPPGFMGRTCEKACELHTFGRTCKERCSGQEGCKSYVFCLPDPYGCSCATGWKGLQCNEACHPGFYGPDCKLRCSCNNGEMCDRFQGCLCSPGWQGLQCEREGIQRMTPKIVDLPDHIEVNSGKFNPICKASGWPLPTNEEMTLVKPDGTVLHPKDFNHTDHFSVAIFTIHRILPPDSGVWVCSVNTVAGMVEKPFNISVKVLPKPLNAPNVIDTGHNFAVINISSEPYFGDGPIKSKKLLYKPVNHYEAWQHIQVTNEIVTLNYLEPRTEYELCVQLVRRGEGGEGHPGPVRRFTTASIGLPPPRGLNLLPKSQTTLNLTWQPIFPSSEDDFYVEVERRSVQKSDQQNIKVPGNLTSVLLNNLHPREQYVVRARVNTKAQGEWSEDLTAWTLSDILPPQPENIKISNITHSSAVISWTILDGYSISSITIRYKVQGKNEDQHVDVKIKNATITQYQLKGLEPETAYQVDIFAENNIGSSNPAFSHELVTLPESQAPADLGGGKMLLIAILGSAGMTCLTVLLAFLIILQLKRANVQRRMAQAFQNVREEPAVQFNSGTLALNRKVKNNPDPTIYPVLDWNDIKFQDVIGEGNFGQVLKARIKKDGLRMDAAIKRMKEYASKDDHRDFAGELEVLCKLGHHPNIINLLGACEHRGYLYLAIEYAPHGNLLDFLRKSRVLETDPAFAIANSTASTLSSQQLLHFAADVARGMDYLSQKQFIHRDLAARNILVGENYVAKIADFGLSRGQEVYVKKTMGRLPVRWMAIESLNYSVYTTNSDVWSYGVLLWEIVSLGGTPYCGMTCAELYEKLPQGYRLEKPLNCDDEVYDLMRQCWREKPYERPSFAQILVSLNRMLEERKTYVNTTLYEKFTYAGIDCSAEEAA
GSK3B (GSK3 beta), sequence (P49841 whole entry): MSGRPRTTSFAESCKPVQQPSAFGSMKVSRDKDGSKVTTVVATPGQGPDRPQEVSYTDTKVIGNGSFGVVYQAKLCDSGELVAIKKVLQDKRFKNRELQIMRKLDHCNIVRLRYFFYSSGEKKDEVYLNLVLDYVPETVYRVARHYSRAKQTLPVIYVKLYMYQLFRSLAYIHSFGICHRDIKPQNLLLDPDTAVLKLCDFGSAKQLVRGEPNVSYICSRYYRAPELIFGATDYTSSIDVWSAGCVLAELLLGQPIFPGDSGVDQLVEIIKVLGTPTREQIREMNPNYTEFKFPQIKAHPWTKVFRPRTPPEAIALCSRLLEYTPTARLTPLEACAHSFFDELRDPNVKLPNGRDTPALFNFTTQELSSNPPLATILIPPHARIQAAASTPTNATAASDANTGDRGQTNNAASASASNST
CDK1/cyclin B, sequence (P06493 whole entry): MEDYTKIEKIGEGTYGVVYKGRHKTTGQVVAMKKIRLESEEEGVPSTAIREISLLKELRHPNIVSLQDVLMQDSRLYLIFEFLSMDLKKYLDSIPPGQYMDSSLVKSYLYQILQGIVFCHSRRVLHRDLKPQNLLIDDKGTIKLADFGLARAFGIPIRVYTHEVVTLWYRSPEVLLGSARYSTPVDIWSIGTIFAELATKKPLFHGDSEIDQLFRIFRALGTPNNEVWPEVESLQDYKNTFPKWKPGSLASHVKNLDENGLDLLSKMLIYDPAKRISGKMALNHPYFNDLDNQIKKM
CDK1/cyclin B, sequence (P14635 whole entry partner): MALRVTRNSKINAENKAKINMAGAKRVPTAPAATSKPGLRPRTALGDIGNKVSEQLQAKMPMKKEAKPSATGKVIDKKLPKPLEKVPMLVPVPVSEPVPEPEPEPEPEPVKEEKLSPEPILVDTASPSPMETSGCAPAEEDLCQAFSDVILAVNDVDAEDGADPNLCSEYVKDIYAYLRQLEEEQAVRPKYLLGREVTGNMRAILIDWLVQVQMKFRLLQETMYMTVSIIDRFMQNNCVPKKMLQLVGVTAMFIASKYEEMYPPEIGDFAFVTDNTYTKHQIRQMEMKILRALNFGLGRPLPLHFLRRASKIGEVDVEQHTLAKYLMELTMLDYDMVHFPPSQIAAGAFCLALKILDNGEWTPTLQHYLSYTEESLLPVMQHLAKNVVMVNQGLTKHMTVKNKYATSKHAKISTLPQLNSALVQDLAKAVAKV
Jak2, sequence (O60674 whole entry): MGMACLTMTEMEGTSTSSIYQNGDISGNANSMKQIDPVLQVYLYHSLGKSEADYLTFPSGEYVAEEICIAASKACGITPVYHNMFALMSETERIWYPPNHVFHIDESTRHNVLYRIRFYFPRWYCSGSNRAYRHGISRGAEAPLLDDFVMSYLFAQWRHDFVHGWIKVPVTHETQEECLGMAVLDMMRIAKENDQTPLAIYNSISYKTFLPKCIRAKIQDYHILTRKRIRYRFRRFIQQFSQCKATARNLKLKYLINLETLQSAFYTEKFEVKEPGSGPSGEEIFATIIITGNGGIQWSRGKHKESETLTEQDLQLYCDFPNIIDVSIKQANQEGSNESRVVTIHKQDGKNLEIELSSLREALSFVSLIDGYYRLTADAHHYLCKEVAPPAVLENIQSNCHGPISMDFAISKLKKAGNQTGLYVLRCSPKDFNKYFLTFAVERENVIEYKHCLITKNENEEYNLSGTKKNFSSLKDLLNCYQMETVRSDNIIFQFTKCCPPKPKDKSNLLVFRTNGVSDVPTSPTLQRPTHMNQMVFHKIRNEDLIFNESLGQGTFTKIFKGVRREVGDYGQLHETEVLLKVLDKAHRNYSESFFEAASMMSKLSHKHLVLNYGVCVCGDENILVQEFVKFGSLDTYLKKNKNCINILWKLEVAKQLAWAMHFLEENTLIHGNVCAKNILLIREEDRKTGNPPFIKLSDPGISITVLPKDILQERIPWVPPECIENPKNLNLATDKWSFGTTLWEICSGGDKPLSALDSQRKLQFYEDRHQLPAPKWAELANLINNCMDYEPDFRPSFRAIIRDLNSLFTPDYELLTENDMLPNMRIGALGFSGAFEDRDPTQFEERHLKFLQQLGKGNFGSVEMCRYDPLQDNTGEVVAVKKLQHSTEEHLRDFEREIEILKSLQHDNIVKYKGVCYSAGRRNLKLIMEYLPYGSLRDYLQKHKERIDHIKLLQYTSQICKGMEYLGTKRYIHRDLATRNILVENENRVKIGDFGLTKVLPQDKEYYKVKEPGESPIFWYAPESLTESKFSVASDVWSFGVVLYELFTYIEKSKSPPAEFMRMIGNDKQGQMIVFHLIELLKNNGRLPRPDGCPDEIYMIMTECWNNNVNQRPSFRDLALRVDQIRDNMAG
PRKCH (PKC eta), sequence (P24723 whole entry): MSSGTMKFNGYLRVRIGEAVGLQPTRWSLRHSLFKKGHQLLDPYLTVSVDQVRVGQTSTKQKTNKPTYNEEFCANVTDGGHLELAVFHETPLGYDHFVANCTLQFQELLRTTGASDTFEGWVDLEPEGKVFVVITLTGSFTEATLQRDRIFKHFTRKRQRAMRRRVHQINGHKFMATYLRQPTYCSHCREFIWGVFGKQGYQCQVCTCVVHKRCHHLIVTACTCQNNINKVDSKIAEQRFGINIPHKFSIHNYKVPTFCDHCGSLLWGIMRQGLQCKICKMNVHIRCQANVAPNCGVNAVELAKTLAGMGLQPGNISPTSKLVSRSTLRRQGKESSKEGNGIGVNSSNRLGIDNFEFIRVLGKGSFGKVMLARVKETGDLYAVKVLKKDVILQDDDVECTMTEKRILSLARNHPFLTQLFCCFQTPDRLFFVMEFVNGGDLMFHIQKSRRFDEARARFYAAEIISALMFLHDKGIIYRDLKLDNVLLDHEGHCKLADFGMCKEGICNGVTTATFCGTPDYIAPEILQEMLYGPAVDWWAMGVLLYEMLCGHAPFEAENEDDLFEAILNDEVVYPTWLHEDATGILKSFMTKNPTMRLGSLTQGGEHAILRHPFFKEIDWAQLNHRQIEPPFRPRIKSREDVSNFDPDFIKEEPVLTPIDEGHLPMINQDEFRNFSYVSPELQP

For `Cn1sc(=O)n(Cc2ccccc2)c1=O` [TDZD-8, 4-benzyl-2-methyl-1,2,4-thiadiazolidine-3,5-dione], the “erythroid colonies, normalized to untreated controls” value (normal progenitor cells) was 94.79%, the “myeloid colonies, normalized to untreated controls” value (normal progenitor cells) was 84.14% and the GI50 ([1]; read-out: GI50) was over 100 µM. The GI50 [1, 7] was over 100 µM, the GI50 (CCRF-CEM; read-out: GI50) was 11.5 µM and the GI50 (CCRF-CEM; [7]) was 11.5 µM. For the same compound, the GI50 (CNS cancer, 6 cell lines; read-out: GI50) was over 100 µM, the GI50 (CNS cancer, 6 cell lines; [7]) was over 100 µM and the GI50 ([2]; read-out: GI50) was over 100 µM. It also gave a GI50 [2, 7] of over 100 µM, a GI50 (HL-60; read-out: GI50) of 0.2 µM and a GI50 (HL-60; [7]) of 0.234 µM. It also gave a GI50 (K-562; K562, read-out: GI50) of 6.5 µM, a GI50 (K-562; K562, read-out: Log10 GI50 (converted)) of 6.46 µM and a GI50 (Melanoma, 8 cell lines; read-out: GI50) of over 100 µM. For the same compound, the GI50 (Melanoma, 8 cell lines; [7]) was over 100 µM, the GI50 ([3]; read-out: GI50) was over 100 µM and the GI50 [3, 7] was over 100 µM. It also gave a GI50 ([4]; read-out: GI50) of over 100 µM, a GI50 [4, 7] of over 100 µM and a GI50 ([5]; read-out: GI50) of over 100 µM. It also gave a GI50 [5, 7] of over 100 µM, a GI50 (RPMI-8226; read-out: GI50) of 23.4 µM and a GI50 (RPMI-8226; [7]) of 23.4 µM. The GI50 ([6]; read-out: GI50) was over 100 µM, the GI50 [6, 7] was over 100 µM and the GI50 (SR; read-out: GI50) was 0.01 µM. For the same compound, the GI50 (SR; [7]) was 0.01 µM, the “% Inhibition mean” value (GSK3B (GSK3 beta)) was 99% and the inhibition at 20 µM (GSK3B (GSK3 beta)) was 98%. It also gave an inhibition at 20 µM (CDK1/cyclin B) of 15%, an inhibition at 20 µM (CSNK1G2 (CK1 gamma 2)) of 22% and an inhibition at 20 µM (DYRK3) of 85%. The inhibition at 20 µM (EGFR (ErbB1)) was 1%, the inhibition at 20 µM (FGFR1) was 1% and the inhibition at 20 µM (IGF1R) was -2%. For the same compound, the inhibition at 20 µM (IRAK4) was 8%, the inhibition (Jak2) was “little to no inhibition” and the inhibition at 20 µM (MAPK14 (p38 alpha)) was 97%. For the same compound, the inhibition at 20 µM (MAPK3 (ERK1)) was 61%, the inhibition at 20 µM (MET (cMet)) was 90% and the inhibition at 20 µM (PHKG2) was 80%. It also gave an inhibition at 20 µM (PRKCE (PKC epsilon)) of 99%, an inhibition at 20 µM (PRKCG (PKC gamma)) of 103% and an inhibition at 20 µM (PRKCH (PKC eta)) of 104%. For the same compound, the inhibition at 20 µM (PRKCQ (PKC theta)) was 101%, the inhibition at 20 µM (PRKCZ (PKC zeta)) was 100% and the inhibition at 20 µM (PRKD1 (PKC mu)) was 97%. For the same compound, the inhibition at 20 µM (RPS6KA3 (RSK2)) was 101%, the inhibition at 20 µM (SYK) was 99% and the inhibition at 20 µM (TEK (Tie2)) was 9%. For the same compound, the “% Inhibition mean” value (TEK (Tie2); TDZD-8 20 μM) was “little to no inhibition”.
